Columns and labels:
[1] = biological target: T1, Ba/F3-BCR-ABL1-T315I-C3 cells (Homo sapiens, UniProt P00519, T315I, cells depend on it); experiment: Inhibitory effect of compounds on proliferation of BCR-ABL T315I-transfected Ba/F3 cells (CCK-8); assay type: cell-based; conditions: 72 h with compound, CCK-8, 5% serum, read-out: IC50 (nM) Ba/F3-BCR-ABL1 T315I
T1 construct: fused on or other part: P11274 (Breakpoint cluster region protein)
Experimental: Ba/F3-BCR-ABL1-T315I-C3 cells in logarithmic growth phase and good cell condition were added to a centrifuge tube and centrifuged at 1000 rpm for 5 min in a low speed centrifuge. The supernatant was discarded, and 5 mL of complete medium (RPMI 1640 basic medium+10% FBS) was added using a pipette for cell resuspension. The cells were counted using a cell counter, diluted with complete medium to a cell density of 6×10^4 cells/mL, and an equivalent amount of RPMI 1640 basic medium was added to adjust the serum concentration to 5% and the cell density to 3×10^4 cells/mL for plate seeding. The cells were seeded on a 96-well plate at 100 μL/well using a multi-channel pipette and cultured in a cell incubator at 37° C. 5% CO2 and saturated humidity. After 24 h incubation, compounds were loaded using a nanoliter pipettor, 8 concentrations (1000 nM, 250 nM, 63 nM, 16 nM, 3.9 nM, 0.98 nM, 0.24 nM, 0.061 nM) were set for each compound, and 2 replicate wells were set for each concentration; cells with no compounds added were taken as a negative control, and a plating medium with no cells added was taken as a blank control. After 72 h. […] Inhibition rate (%)=(mean value of negative control group−mean value of experimental group)/(mean value of negative control group−mean value of blank group)×100%. A dose-response curve was fitted by four-parameter analysis, with the logarithm of compound concentration serving as abscissa and inhibition rate serving as ordinate, such that ICso was calculated.

[2] = Evaluation of pharmacokinetics in mice; assay type: in vivo; conditions: mouse, plasma, po, ICR mice; for bioavailability: ig 10 mg/kg, (intragastric AUC×intravenous dosage)/(intravenous AUC×intragastric dosage)×100%, read-out: Fabs(%) absolute bioavailability; for Cmax / Tmax / half-life / AUC(0-t) / MRT last: ig, 10 mg/kg; for AUC(0-t): read-out: AUC(0-24); for MRT last: read-out: MRT(0-24)
Experimental: ICR mice (purchased from Shanghai Sippe-Bk Lab Animal Co., Ltd.) of 18-22 g were randomized into groups of 9 after 3-5 days of acclimatization and administered with the compounds at a dose of 10 mg/kg by intragastric administration. The animals to be tested (ICR mice) were fasted overnight before administration and food was provided 4 h after administration, and water was freely drunk before and after the experiment and during the experiment. After intragastric administration, about 0.1 mL of blood was collected from the orbit at 0.25 (15 min), 0.5 (30 min), 1, 2, 3, 4, 6, 8, 10, and 24 h (Each mouse was subjected to blood collection at 3-4 time points, with three mice per time point). The blood samples were mixed with EDTA-K2 anticoagulant, transferred to a centrifuge within 30 min, and then centrifuged at 4000 rpm for 10 min at 4° C. to separate the plasma. All the plasma samples were collected and immediately stored at −20° C. for testing.
300 μL of acetonitrile solution containing an internal standard (20 ng/ml diazepam) was added to 30 μL of the plasma sample and standard curve sample. The mixture was shaken and mixed well for 5 min, and centrifuged at 13.000 rpm for 10 min. 70 μL of supernatant was taken and diluted with 70 μL of ultrapure water. After being mixed well, 1 μL of the resulting sample was subjected to LC/MS/MS, and a chromatogram was recorded.
Oral exposure of the compounds was evaluated by in vivo pharmacokinetic experiments in mice. The relevant pharmacokinetic parameters were fitted by using DAS3.2.5 software, where absolute bioavailability Fabs(%)=(intragastric AUC×intravenous dosage)/(intravenous AUC×intragastric dosage)×100%.

K562 cells = experiment: Inhibitory effect of compounds on proliferation of K562 cells (CCK-8); assay type: cell-based; conditions: Homo sapiens, 72 h with compound, CCK-8, 5% serum
Experimental: K562 cells in logarithmic growth phase and good cell condition were added to a centrifuge tube and centrifuged at 1000 rpm for 5 min in a low speed centrifuge. […] The cells were seeded on a 96-well plate at 100 µL/well using a multi-channel pipette and cultured in a cell incubator at 37° ° C. 5% CO2 and saturated humidity. […] Inhibition rate (%)=(mean value of negative control group−mean value of experimental group)/(mean value of negative control group−mean value of blank group)×100%. A dose-response curve was fitted by four-parameter analysis, with the logarithm of compound concentration serving as abscissa and inhibition rate serving as ordinate, such that IC50 was calculated.

SMILES	GI50 [1] [nM]	IC50 (K562 cells) [nM]	other results
Cn1ccc(-c2cc(C(=O)Nc3ccc(OC(F)(F)Cl)cc3)cnc2N2CC[C@@H](F)C2)cc1=O [Compound 16]	4.7	2.1	bioavailability [2]: 93.2%; Cmax [2]: 1880 ng/mL; Tmax [2]: 3 h; half-life [2]: 1.46 h; AUC(0-t) [2]: 9690 ng·h/mL; MRT last [2]: 3.33 h
O=C(Nc1ccc(OC(F)(F)Cl)cc1)c1cnc(N2CC3CCC(C2)O3)c(-c2cnn3c2COCC3)c1 [Compound 44]	2.4	4.5	
O=C(Nc1ccc(OC(F)(F)Cl)cc1)c1ccc(N2CC(O)C2)c(-c2cc3c([nH]2)C(=O)NC3)c1 [Compound 117]	0.15	1	
Cn1ccc(-c2cc(C(=O)Nc3ccc(OC(F)(F)Cl)cc3)cnc2N2C3COCC2C3)cc1=O [Compound 20]	38	31	
C[C@@H]1CCN1c1ncc(C(=O)Nc2ccc(OC(F)(F)Cl)cc2)cc1-c1cc(=O)n(C)cn1 [Compound 76]	2.2	2.2	
Cn1cnc(-c2cc(C(=O)Nc3ccc(OC(F)(F)Cl)cc3)cnc2N2CCSCC2)cc1=O [Compound 67]	6.1	12	
Cn1cccc(-c2cc(C(=O)Nc3ccc(OC(F)(F)Cl)cc3)cnc2N2CCOCC2)c1=O [Compound 86]	14	24	
O=C(Nc1ccc(OC(F)(F)Cl)cc1)c1cnc(N2CCOCC2)c(-c2ccn(CCO)c(=O)c2)c1 [Compound 8]	23	52	
Cn1cnc(-c2cc(C(=O)Nc3ccc(OC(F)(F)Cl)cc3)cnc2N2CCC(F)(F)CC2)cc1=O [Compound 64]	8.1	9.1	
Cn1cnc(-c2cc(C(=O)Nc3ccc(OC(F)(F)Cl)cc3)cnc2N2CCCC2)cc1=O [Compound 45]	8.1	4.2	
O=C(Nc1ccc(OC(F)(F)Cl)cc1)c1cnc(N2CCOCC2)c(-c2cc3c([nH]2)C(=O)NCC3)c1 [Compound 97]	2.3	5.7	
CN1Cc2cc(-c3cc(C(=O)Nc4ccc(OC(F)(F)Cl)cc4)cnc3N3CC(O)C3)[nH]c2C1=O [Compound 112]	0.29	0.54	
Cn1ccc(-c2cc(C(=O)Nc3ccc(OC(F)(F)Cl)cc3)cnc2N2CC3CC3C2)cc1=O (centres unmarked) [Compound 28]	11	6.5	
Cn1ccc(-c2cc(C(=O)Nc3ccc(OC(F)(F)Cl)cc3)cnc2N2CCCC2)cc1=O [Compound 15]	9.6	3.1	bioavailability [2]: 106%; Cmax [2]: 2330 ng/mL; Tmax [2]: 2 h; half-life [2]: 2.12 h; AUC(0-t) [2]: 12300 ng·h/mL; MRT last [2]: 3.64 h
Cn1ccc(-c2cc(C(=O)Nc3ccc(OC(F)(F)Cl)cc3)cnc2N2CC[C@@H](C#N)C2)cc1=O [Compound 31]	21	12	
CN(C)c1ncc(C(=O)Nc2ccc(OC(F)(F)Cl)cc2)cc1-c1cc(=O)n(C)cn1 [Compound 61]	3	5.6	bioavailability [2]: 95.1%; Cmax [2]: 3200 ng/mL; Tmax [2]: 2 h; half-life [2]: 10.4 h; AUC(0-t) [2]: 24100 ng·h/mL; MRT last [2]: 4.83 h
Cn1ncc(-c2cc(C(=O)Nc3ccc(OC(F)(F)Cl)cc3)cnc2N2CC3CCC(C2)O3)cc1=O [Compound 91]	4.1	6.6	

SMILES	GI50 [1] [nM]	IC50 (K562 cells) [nM]	other results
Cn1ccc(-c2cc(C(=O)Nc3ccc(OC(F)(F)Cl)cc3)cnc2N2CC[C@H](Cl)C2)cc1=O [Compound 4]	21	16	
Cn1ccc(-c2cc(C(=O)Nc3ccc(OC(F)(F)Cl)cc3)cnc2N2CC(C#N)C2)cc1=O [Compound 25]	20	9	
Cn1cc(Cl)c(-c2cc(C(=O)Nc3ccc(OC(F)(F)Cl)cc3)cnc2N2CCOCC2)cc1=O [Compound 33]	9.1	4.9	
CN1Cc2cc(-c3cc(C(=O)Nc4ccc(OC(F)(F)Cl)cc4)cnc3N3CC[C@@H](O)C3)[nH]c2C1=O [Compound 111]	0.16	0.5	
CN1CCc2cc(-c3cc(C(=O)Nc4ccc(OC(F)(F)Cl)cc4)cnc3N3CCOCC3)[nH]c2C1=O [Compound 115]	3	5.5	
Cn1ccc(-c2cc(C(=O)Nc3ccc(OC(F)(F)Cl)cc3)cnc2N2CCOCC2)cc1=O [Compound 7]	16	11	bioavailability [2]: 74.1%; Cmax [2]: 772 ng/mL; Tmax [2]: 3 h; half-life [2]: 1.05 h; AUC(0-t) [2]: 2850 ng·h/mL; MRT last [2]: 3.03 h
CN(C)c1ncc(C(=O)Nc2ccc(OC(F)(F)Cl)cc2)cc1-c1cc2c([nH]1)C(=O)NC2 [Compound 109]	0.27	0.95	
Cn1ccc(-c2cc(C(=O)Nc3ccc(OC(F)(F)Cl)cc3)cnc2N2CC3CC(C2)O3)cc1=O [Compound 23]	18	10	
O=C(Nc1ccc(OC(F)(F)Cl)cc1)c1cnc(N2CCCC2)c(-c2cnn3c2COCC3)c1 [Compound 42]	3.5	2.3	
O=C(Nc1ccc(OC(F)(F)Cl)cc1)c1cnc(N2CC[C@@H](O)C2)c(-c2cc3c([nH]2)C(=O)N(C2CC2)C3)c1 [Compound 113]	0.18	0.62	
Cn1ccc(-c2cc(C(=O)Nc3ccc(OC(F)(F)Cl)cc3)cnc2N2C3CCC2COC3)cc1=O [Compound 35]	13	16	
CN1CCc2cc(-c3cc(C(=O)Nc4ccc(OC(F)(F)Cl)cc4)cnc3N3CC[C@@H](O)C3)[nH]c2C1=O [Compound 94]	0.88	0.71	
Cn1ccc(-c2cc(C(=O)Nc3ccc(OC(F)(F)Cl)cc3)cnc2N2CC3CCC(C2)O3)cc1=O [Compound 34]	7.8	20	
Cn1ccc(-c2cc(C(=O)Nc3ccc(OC(F)(F)Cl)cc3)cnc2N2CC3(COC3)C2)cc1=O [Compound 5]	28	16	
CO[C@@H]1CCN(c2ncc(C(=O)Nc3ccc(OC(F)(F)Cl)cc3)cc2-c2cc(=O)n(C)cn2)C1 [Compound 63]	6	5.2	
Cn1ccc(-c2cc(C(=O)Nc3ccc(OC(F)(F)Cl)cc3)cnc2N2CC[C@H](F)C2)cc1=O [Compound 17]	33	13	
Cn1ccc(-c2cc(C(=O)Nc3ccc(OC(F)(F)Cl)cc3)cnc2N2CCC3(CC2)COC3)cc1=O [Compound 24]	12	6.3	

Source: patent publication US20240262807A1, “COMPOUND USED AS BCR-ABL INHIBITOR” (CHIA TAI TIANQING PHARMACEUTICAL GROUP CO., LTD., priority 2021, published 2024)
